Assay results: patent publication US20250320193A1, “OXOISOINDOLINYL SUBSTITUTED PIPERIDINEDIONE DERIVATIVE AND USE THEREOF” (GLUETACS THERAPEUTICS (SHANGHAI) CO., LTD., priority 2022, published 2025)

Target: human Cereblon WT GST-tagged protein (Homo sapiens (Human), UniProt Q96SW2)
Experiment: CRBN-binding affinity, HTRF (CEREBLON BINDING kit, CISBIO)
Conditions: HTRF inhibitory activity
Protocol: I. Determination of CRBN-binding affinity of compounds of the present disclosure:
The CEREBLON BINDING kits (specification: 10,000 tests; product number: Catalog #64BDCRBNPEH; CISBIO company) was used to determine the CRBN binding ability of the compounds to be tested through a HTRF method (homogeneous time-resolved fluorescence). The specific methods are as follows: • 1. […] Then, 2.5 μL of human Cereblon WT GST-tagged protein solution was added to each well. Finally, 5 μL of the thoroughly mixed Thalidomide-Red reagent and GST Eu antibody working solution were added to each of the aforementioned wells. […] The blank control wells were sequentially added with 2.5 μL of diluent #9 (1X) solution, 2.5 μL of PROTAC binding buffer, and 5 μL of thoroughly mixed Thalidomide-Red reagent and GST Eu antibody working solution. • 4.
The corresponding CRBN binding inhibition rate was calculated using the following method: […]
OD 620 nmcompound is the absorbance value of each well of the compounds to be tested of the present disclosure at an emission wavelength of 620 nm. […] OD 620 nmcontrol is the absorbance value of the blank control well at an emission wavelength of 620 nm. […] OD 620 nmStd0 is the absorbance value of the solvent control well at an emission wavelength of 620 nm.

human Cereblon WT GST-tagged protein, sequence (Q96SW2 whole entry): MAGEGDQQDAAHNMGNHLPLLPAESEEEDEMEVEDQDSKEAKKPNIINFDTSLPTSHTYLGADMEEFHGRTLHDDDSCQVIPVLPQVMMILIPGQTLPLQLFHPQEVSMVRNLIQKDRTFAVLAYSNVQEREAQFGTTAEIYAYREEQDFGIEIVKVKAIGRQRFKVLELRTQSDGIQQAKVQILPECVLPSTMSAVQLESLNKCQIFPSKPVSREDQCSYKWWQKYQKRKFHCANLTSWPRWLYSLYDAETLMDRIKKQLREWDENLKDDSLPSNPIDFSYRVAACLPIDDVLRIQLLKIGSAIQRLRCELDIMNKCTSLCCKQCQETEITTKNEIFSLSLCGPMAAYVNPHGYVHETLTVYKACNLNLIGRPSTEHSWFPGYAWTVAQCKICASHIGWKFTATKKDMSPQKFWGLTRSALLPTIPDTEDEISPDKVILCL

Compound	IC50 [nM]
O=C1CCC(N2Cc3cc(C(=O)N4C5CCC4CN(C(c4ccccc4)c4ccccc4)C5)cc(F)c3C2=O)C(=O)N1 (stereo not shown) [GT-06055, 3-(5-(3-benzhydryl-3,8-diazabicyclo[3.2.1]octane-8-carbonyl)-7-fluoro-1-oxoisoindolin-2-yl)piperidine-2,6-dione]	< 500
O=C1CCC(N2Cc3cc(C(=O)N4CC5CCC4CN5C(c4ccccc4)c4ccccc4)ccc3C2=O)C(=O)N1 (stereo not shown) [GT-06056, 3-(5-(5-benzhydryl-2,5-diazabicyclo[2.2.2]octane-2-carbonyl)-1-oxoisoindolin-2-yl)piperidine-2,6-dione]	< 500
O=C1CCC(N2Cc3cc(C(=O)N4CC5CCC4CN5C(c4ccccc4)c4ccccc4)cc(F)c3C2=O)C(=O)N1 (stereo not shown) [GT-06057, 3-(5-(5-benzhydryl-2,5-diazabicyclo[2.2.2]octane-2-carbonyl)-7-fluoro-1-oxoisoindolin-2-yl)piperidine-2,6-dione]	< 500
CC1CN(C(=O)c2ccc3c(c2)CN(C2CCC(=O)NC2=O)C3=O)CC(C)N1C(c1ccccc1)c1ccccc1 (stereo not shown) [GT-06059, 3-(5-(4-benzhydryl-3,5-dimethylpiperazine-1-carbonyl)-1-oxoisoindolin-2-yl)piperidine-2,6-dione]	< 500
CC1CN(C(=O)c2cc(F)c3c(c2)CN(C2CCC(=O)NC2=O)C3=O)CC(C)N1C(c1ccccc1)c1ccccc1 (stereo not shown) [GT-06060, 3-(5-(4-benzhydryl-3,5-dimethylpiperazine-1-carbonyl)-7-fluoro-1-oxoisoindolin-2-yl)piperidine-2,6-dione]	500 to 1000
CC1(C)CN(C(=O)c2cc(F)c3c(c2)CN(C2CCC(=O)NC2=O)C3=O)CCN1C(c1ccccc1)c1ccccc1 (stereo not shown) [GT-06062, 3-(5-(4-benzhydryl-3,3-dimethylpiperazine-1-carbonyl)-7-fluoro-1-oxoisoindolin-2-yl)piperidine-2,6-dione]	500 to 1000
O=C1CCC(N2Cc3cc(C(=O)N4CCN(C5c6cc(Cl)ccc6-c6ccc(Cl)cc65)CC4)ccc3C2=O)C(=O)N1 (stereo not shown) [GT-06069, 3-(5-(4-(2,7-dichloro-9H-fluoren-9-yl)piperazine-1-carbonyl)-1-oxoisoindolin-2-yl)piperidine-2,6-dione]	500 to 1000
O=C1CCC(N2Cc3c(ccc(C4=CCN(C(c5ccccc5)c5ccccc5)CC4)c3F)C2=O)C(=O)N1 (stereo not shown) [GT-06072, 3-(5-(1-benzhydryl-1,2,3,6-tetrahydropyridin-4-yl)-4-fluoro-1-oxoisoindolin-2-yl)piperidine-2,6-dione]	< 500
O=C1CCC(N2Cc3cc(CN4CCN(C(c5ccccc5)c5ccccc5)CC4C(F)(F)F)cc(F)c3C2=O)C(=O)N1 (stereo not shown) [GT-06098, 3-(5-((4-benzhydryl-2-(trifluoromethyl)piperazin-1-yl)methyl)-7-fluoro-1-oxoisoindolin-2-yl)piperidine-2,6-dione]	< 500
O=C1CCC(N2Cc3cc(CN4CCN(C(c5ccccc5)c5cccnc5)CC4)cc(F)c3C2=O)C(=O)N1 (stereo not shown) [GT-06111, 3-(7-fluoro-1-oxo-5-((4-(phenyl(pyridin-3-yl)methyl)piperazin-1-yl)methyl)isoindolin-2-yl)piperidine-2,6-dione]	< 500
O=C1CCC(N2Cc3c(CN4CCN(C(c5ccccc5)c5cccnc5)CC4)cccc3C2=O)C(=O)N1 (stereo not shown) [GT-06113, 3-(1-oxo-4-((4-(phenyl(pyridin-3-yl)methyl)piperazin-1-yl)methyl)isoindolin-2-yl)piperidine-2,6-dione]	500 to 1000
O=C1CCC(N2Cc3ccc(CN4CCN(C(c5cccc(F)c5)c5cccc(F)c5)CC4)cc3C2=O)C(=O)N1 (stereo not shown) [GT-06116, 3-(6-((4-(bis(3-fluorophenyl)methyl)piperazin-1-yl)methyl)-1-oxoisoindolin-2-yl)piperidine-2,6-dione]	500 to 1000
O=C1CCC(N2Cc3cc(CN4CCN(C(c5ccccc5)c5ccncc5)CC4)cc(F)c3C2=O)C(=O)N1 (stereo not shown) [GT-06135, 3-(7-fluoro-1-oxo-5-((4-(phenyl(pyridin-4-yl)methyl)piperazin-1-yl)methyl)isoindolin-2-yl)piperidine-2,6-dione]	< 500
O=C1CCC(N2Cc3c(ccc(C4CCN(C(c5ccccc5)c5ccccc5)CC4)c3F)C2=O)C(=O)N1 (stereo not shown) [GT-06136, 3-(5-(1-benzhydrylpiperidin-4-yl)-4-fluoro-1-oxoisoindolin-2-yl)piperidine-2,6-dione]	< 500
O=C1CCC(N2Cc3cc(C(=O)N4CCN(C(c5ccccc5)c5ccncc5)CC4)ccc3C2=O)C(=O)N1 (stereo not shown) [GT-06144, 3-(1-oxo-5-(4-(phenyl(pyridin-4-yl)methyl)piperazine-1-carbonyl)isoindolin-2-yl)piperidine-2,6-dione]	500 to 1000
O=C1CCC(N2Cc3ccc(C(=O)N4CCN(C(c5cccc(F)c5)c5cccc(F)c5)CC4)cc3C2=O)C(=O)N1 (stereo not shown) [GT-06149, 3-(6-(4-(bis(3-fluorophenyl)methyl)piperazine-1-carbonyl)-1-oxoisoindolin-2-yl)piperidine-2,6-dione]	500 to 1000
O=C1CCC(N2Cc3cccc(C(=O)N4CCN(C(c5cccc(F)c5)c5cccc(F)c5)CC4)c3C2=O)C(=O)N1 (stereo not shown) [GT-06150, 3-(7-(4-(bis(3-fluorophenyl)methyl)piperazine-1-carbonyl)-1-oxoisoindolin-2-yl)piperidine-2,6-dione]	500 to 1000
O=C1CCC(N2Cc3cc(C4CCN(C(c5ccccc5)c5ccccc5)CC4)cc(F)c3C2=O)C(=O)N1 (stereo not shown) [GT-06198, 3-(5-(1-benzhydrylpiperidin-4-yl)-7-fluoro-1-oxoisoindolin-2-yl)piperidine-2,6-dione]	< 500
O=C1CCC(N2Cc3cc(NC4CCC(N(c5ccccc5)c5ccccc5)CC4)ccc3C2=O)C(=O)N1 (stereo not shown) [GT-06806, 3-(5-((4-(diphenylamino)cyclohexyl)amino)-1-oxoisoindolin-2-yl)piperidine-2,6-dione]	1000 to 1900
